{
  "source": "patent US7259004B1",
  "about": "“Endophytic streptomycetes from higher plants with biological activity” (Montana State University, priority 2002, dated 2007)",
  "key": {"[1]": {"test_system": "Candida albicans ATCC 90028", "test": "disk diffusion assay; as to diameter of the zone of inhibition, Candida albicans ATCC 24433: key: R = resistant; as to diameter of the zone of inhibition, Candida albicans ATCC 90028: key: R = resistant; as to diameter of the zone of inhibition, Candida glabrata ATCC 2001: key: R = resistant; as to diameter of the zone of inhibition, Candida parasdosis ATCC 90018: key: R = resistant; as to diameter of the zone of inhibition, Candida parasilosis ATCC 22019: key: R = resistant; as to diameter of the zone of inhibition, Candida tropicalis ATCC 750: key: R = resistant; as to diameter of the zone of inhibition, Escherichia coli ATCC 25922: key: R = resistant; as to diameter of the zone of inhibition, Pseudomonas aeruginosa ATCC 27853: key: R = resistant", "format": "cell-based", "details": "10 micrograms per disk; 35° C."}, "[2]": {"test_system": "Human Lung Cancer Epithelial A549", "test": "CellTiter 96 Aqueous Non-Radioactive Cell Proliferation Assay", "format": "cell-based", "details": "48 hours; Table 7", "protocol": "(§1) The munumbicins were then tested against three human cancer cell lines (ATCC) and human primary mammary epithelial cells (HMECs) (Clonetics; Biowhittaker, Walkersville, Md.) using a CellTiter 96® Aqueous Non-Radioactive Cell Proliferation Assay kit from Promega (Madison, Wis.). The cell lines were A-549 (lung epithelial carcinoma, ATCC CCL-185), ME-180 (cervical epithelial epidermoid carcinoma, ATCC HTB-33), and BT-20 (breast epithelial cancer, ATCC HTB-19), and were grown in the media recommended by ATCC. The primary mammary cells were cultured as recommended by the manufacturer in mammary epithelial cell growth media (MEGM®). […] After seeding, the cells were incubated for five hours at 37° C. before addition of the munumbicins. Two-fold serial dilutions of the munumbicins were made in the culture medium, and a volume equal to that of the seeded cells for each dilution was added to three wells of cells. Each plate also contained some wells with cells plus medium only and some wells with medium only. […] The A-549 and ME-180 cells were incubated for 48 hours. […] The plates were incubated at 37° C. for one to four hours, and the OD490 was determined. The OD reading of all wells was corrected for background by subtracting the reading of wells containing medium only. […] Kakadumycin A was tested against three human cancer cell lines (ATCC) and human primary mammary epithelial cells using the procedure described above for the munumbicins. Kadadumycin B was tested against one human cancer cell line."}, "[3]": {"test_system": "Human Primary Mammary Epithelial HMEC", "test": "CellTiter 96 Aqueous Non-Radioactive Cell Proliferation Assay", "format": "cell-based", "details": "48 hours; Table 7", "protocol": "as §1"}, "[4]": {"test_system": "Human Cervical Cancer Epithelial ME180", "test": "CellTiter 96 Aqueous Non-Radioactive Cell Proliferation Assay", "format": "cell-based", "details": "48 hours; Table 7", "protocol": "as §1"}, "[5]": {"test_system": "Human Breast Cancer Epithelial BT-20", "test": "CellTiter 96 Aqueous Non-Radioactive Cell Proliferation Assay", "format": "cell-based", "details": "96-144 hours; Table 7", "protocol": "as §1"}, "[6]": {"test_system": "Enterococcus faecalis ATCC 51299 (VRE)", "test": "microbroth dilution MIC", "format": "cell-based", "details": "resistant to vancomycin; first listing in Table 4"}, "[7]": {"test_system": "Candida glabrata ATCC 2001", "test": "disk diffusion assay", "format": "cell-based", "details": "10 micrograms per disk; 35° C."}, "[8]": {"test_system": "Plasmodium falciparum strain CSC-1 (Honduras)", "test": "antimalarial assay, 3H-phenylalanine radiobioassay in human red blood cells", "details": "human red blood cells, 3H-phenylalanine; standard deviation of the mean, three experiments"}, "[9]": {"test_system": "Candida parasdosis ATCC 90018", "test": "disk diffusion assay", "format": "cell-based, Candida parapsilosis", "details": "10 micrograms per disk; 35° C."}, "Pseudomonas syringae": {"test_system": "Pseudomonas syringae", "test": "microbroth dilution MIC, plant associated microorganisms", "format": "cell-based", "details": "PD broth", "protocol": "(§2) Incubation was for 48 hours at 23° C. A plant pathogenic strain of Pseudomonas syringae was also tested using the same PD broth medium and with concentrations of colony forming units as given above. The organisms were obtained from the Montana State University plant pathogen culture collection administered by Dr. […] The relative activities against plant pathogenic fungi ranged from a few tenths of a microgram up to thirty micrograms. Table 2 provides the results of tests of inhibitory activity of the munumbicins against various plant-pathogenic fungi and one pathogenic bacterium. The data are reported as MIC values in micrograms/ml."}, "Pythium ultimum": {"test_system": "Pythium ultimum", "test": "microbroth dilution MIC, plant associated microorganisms", "format": "cell-based", "details": "PD broth, 48 hours at 23° C.", "protocol": "as §2"}, "Sclerotinia sclerotiorum": {"test_system": "Sclerotinia sclerotiorum", "test": "microbroth dilution MIC, plant associated microorganisms", "format": "cell-based", "details": "PD broth, 48 hours at 23° C.", "protocol": "as §2"}, "[10]": {"test_system": "Candida tropicalis ATCC 750", "test": "disk diffusion assay", "format": "cell-based", "details": "10 micrograms per disk; 35° C."}, "[11]": {"test_system": "Candida albicans ATCC 24433", "test": "disk diffusion assay", "format": "cell-based", "details": "10 micrograms per disk; 35° C."}, "Cryptococcus neoformans": {"test_system": "Cryptococcus neoformans", "test": "microbroth dilution MIC"}, "[12]": {"test_system": "Enterococcus faecalis ATCC 51299", "test": "disk diffusion assay", "format": "cell-based", "details": "10 micrograms per disk; ciprofloxacin 5, vancomycin 30 micrograms per disk; 35° C."}, "[13]": {"test_system": "S. maltophilia ATCC 13637", "test": "disk diffusion assay", "format": "cell-based, Stenotrophomas maltophilia", "details": "10 micrograms per disk; 35° C."}, "[14]": {"test_system": "Neisseria gonnorhea ATCC 49226", "test": "disk diffusion assay", "format": "cell-based", "details": "10 micrograms per disk; ciprofloxacin 5, vancomycin 30 micrograms per disk; GC agar with 1% growth supplement with 5% CO2"}, "[15]": {"test_system": "Escherichia coli ATCC 25922", "test": "disk diffusion assay", "format": "cell-based", "details": "10 micrograms per disk; penicillin G 10 units per disk; 35° C."}, "brine shrimp": {"test_system": "brine shrimp", "test": "brine shrimp assays", "details": "preliminary assays"}, "S. epidermis ATCC 12228": {"test_system": "S. epidermis ATCC 12228", "test": "disk diffusion assay", "format": "cell-based, Staphylococcus epidermidis", "details": "10 micrograms per disk; 35° C."}, "[16]": {"test_system": "Shigella dysenteriae ATCC 11835", "test": "disk diffusion assay", "format": "cell-based", "details": "10 micrograms per disk; 35° C."}, "[17]": {"test_system": "gram positive bacteria including Staphylococcus species, Streptococcus pneumoniae, Enterococcus species, Bacillus subtilis, and Listeria monocytogenes", "test": "activity against Gram positive bacteria (general statements)", "format": "cell-based"}, "[18]": {"test_system": "Enterococcus faecalis ATCC 29212", "test": "disk diffusion assay", "format": "cell-based", "details": "10 micrograms per disk; ciprofloxacin 5, vancomycin 30 micrograms per disk; 35° C."}, "Candida krusei ATCC 6258": {"test_system": "Candida krusei ATCC 6258", "test": "disk diffusion assay", "format": "cell-based", "details": "10 micrograms per disk; 35° C."}, "[19]": {"test_system": "Staphylococcus aureus ATCC 29213", "test": "disk diffusion assay", "format": "cell-based", "details": "10 micrograms per disk; ciprofloxacin 5, vancomycin 30 micrograms per disk; 35° C."}, "Bacillus anthracis K8902": {"test_system": "Bacillus anthracis K8902", "format": "cell-based", "details": "10 micrograms per disk; ciprofloxacin 5, vancomycin 30 micrograms per disk; 35° C."}, "[20]": {"test_system": "Candida parasilosis ATCC 22019", "test": "disk diffusion assay", "format": "cell-based, Candida parapsilosis", "details": "10 micrograms per disk; 35° C."}, "[21]": {"test_system": "Streptococcus pneumoniae ATCC 49619", "test": "disk diffusion assay", "format": "cell-based", "details": "10 micrograms per disk; ciprofloxacin 5, vancomycin 30 micrograms per disk; MHA with 5% dsb. and 5% CO2"}, "Aspergillus fumigatus": {"test_system": "Aspergillus fumigatus", "test": "microbroth dilution MIC"}, "Vibrio fischeri PIC 345": {"test_system": "Vibrio fischeri PIC 345", "test": "disk diffusion assay", "format": "cell-based", "details": "10 micrograms per disk; ciprofloxacin 5, vancomycin 30 micrograms per disk; 35° C."}, "[22]": {"test_system": "Pseudomonas aeruginosa ATCC 27853", "test": "disk diffusion assay", "format": "cell-based", "details": "10 micrograms per disk; ciprofloxacin 5, vancomycin 30 micrograms per disk; 35° C."}, "[23]": {"test_system": "Staphylococcus aureus ATCC 33591 (MRSA)", "test": "microbroth dilution MIC", "format": "cell-based", "details": "methicillin resistant strain; first listing in Table 4"}, "[24]": {"test_system": "Acinetobacter sp. ATCC 49137", "test": "disk diffusion assay", "format": "cell-based", "details": "10 micrograms per disk; ciprofloxacin 5, vancomycin 30 micrograms per disk; grown at 30° C."}},
  "data": [
    {"substance": "munumbicin A", "values": [
      {"measurement": "diameter of the zone of inhibition, Candida albicans ATCC 90028", "setting": "[1]", "result": "R"},
      {"measurement": "IC50 Human Lung Cancer Epithelial A549", "setting": "[2]", "result": 1, "unit": "micrograms/ml"},
      {"measurement": "IC50 Human Primary Mammary Epithelial HMEC", "setting": "[3]", "result": 0.331, "unit": "micrograms/ml"},
      {"measurement": "IC50 Human Cervical Cancer Epithelial ME180", "setting": "[4]", "result": 0.51, "unit": "micrograms/ml"},
      {"measurement": "IC50 Human Breast Cancer Epithelial BT-20", "setting": "[5]", "result": 0.19, "unit": "micrograms/ml"},
      {"measurement": "MIC Enterococcus faecalis ATCC 51299", "setting": "[6]", "result": 8, "unit": "micrograms/ml"},
      {"measurement": "diameter of the zone of inhibition, Candida glabrata ATCC 2001", "setting": "[7]", "result": "R"},
      {"measurement": "IC50 Plasmodium falciparum", "setting": "[8]", "result": "0.175 ± 0.106", "unit": "µg/mL"},
      {"measurement": "diameter of the zone of inhibition, Candida parasdosis ATCC 90018", "setting": "[9]", "result": "R"},
      {"measurement": "MIC Pseudomonas syringae", "setting": "Pseudomonas syringae", "result": 15.6, "unit": "micrograms/ml"},
      {"measurement": "MIC Pythium ultimum", "setting": "Pythium ultimum", "result": 2.0, "unit": "micrograms/ml"},
      {"measurement": "MIC Sclerotinia sclerotiorum", "setting": "Sclerotinia sclerotiorum", "result": 8.0, "unit": "micrograms/ml"},
      {"measurement": "diameter of the zone of inhibition, Candida tropicalis ATCC 750", "setting": "[10]", "result": "R"},
      {"measurement": "diameter of the zone of inhibition, Candida albicans ATCC 24433", "setting": "[11]", "result": "R"},
      {"measurement": "MIC Cryptococcus neoformans", "setting": "Cryptococcus neoformans", "result": 10, "unit": "micrograms/ml"},
      {"measurement": "diameter of the zone of inhibition, Enterococcus faecalis ATCC 51299", "setting": "[12]", "result": "R"},
      {"measurement": "diameter of the zone of inhibition, S. maltophilia ATCC 13637", "setting": "[13]", "result": "R"},
      {"measurement": "diameter of the zone of inhibition, Neisseria gonnorhea ATCC 49226", "setting": "[14]", "result": 9, "unit": "mm"},
      {"measurement": "diameter of the zone of inhibition, Escherichia coli ATCC 25922", "setting": "[15]", "result": "R"},
      {"measurement": "LC50 brine shrimp", "setting": "brine shrimp", "result": 3.3, "unit": "micrograms/ml"},
      {"measurement": "diameter of the zone of inhibition, S. epidermis ATCC 12228", "setting": "S. epidermis ATCC 12228", "result": 9, "unit": "mm"},
      {"measurement": "diameter of the zone of inhibition, Shigella dysenteriae ATCC 11835", "setting": "[16]", "result": "R"},
      {"measurement": "activity against Gram positive bacteria incl. drug resistant strains (in words)", "setting": "[17]", "result": "shows activity"},
      {"measurement": "diameter of the zone of inhibition, Enterococcus faecalis ATCC 29212", "setting": "[18]", "result": "R"},
      {"measurement": "diameter of the zone of inhibition, Candida krusei ATCC 6258", "setting": "Candida krusei ATCC 6258", "result": "R"},
      {"measurement": "diameter of the zone of inhibition, Staphylococcus aureus ATCC 29213", "setting": "[19]", "result": "R"},
      {"measurement": "diameter of the zone of inhibition, Bacillus anthracis K8902", "setting": "Bacillus anthracis K8902", "result": 9.5, "unit": "mm"},
      {"measurement": "diameter of the zone of inhibition, Candida parasilosis ATCC 22019", "setting": "[20]", "result": "R"},
      {"measurement": "diameter of the zone of inhibition, Streptococcus pneumoniae ATCC 49619", "setting": "[21]", "result": "R"},
      {"measurement": "MIC Aspergillus fumigatus", "setting": "Aspergillus fumigatus", "result": 20, "unit": "micrograms/ml"},
      {"measurement": "diameter of the zone of inhibition, Vibrio fischeri PIC 345", "setting": "Vibrio fischeri PIC 345", "result": "R"},
      {"measurement": "diameter of the zone of inhibition, Pseudomonas aeruginosa ATCC 27853", "setting": "[22]", "result": "R"},
      {"measurement": "MIC Staphylococcus aureus ATCC 33591", "setting": "[23]", "result": "not active"},
      {"measurement": "diameter of the zone of inhibition, Acinetobacter sp. ATCC 49137", "setting": "[24]", "result": "R"}
    ]}
  ]
}
